From the supplement of paper PMC10307832

Assays:
Assay in all cases: relative viability (nuclei count vs DMSO), 5 days (fraction); higher = more cells survive
Tipifarnib + Lapatinib = compound: Cn1cncc1[C@@](N)(c1ccc(Cl)cc1)c1ccc2c(c1)c(-c1cccc(Cl)c1)cc(=O)n2C [Tipifarnib] + CS(=O)(=O)CCNCc1ccc(-c2ccc3ncnc(Nc4ccc(OCc5cccc(F)c5)c(Cl)c4)c3c2)o1 [Lapatinib] (partner 2 µM)
Outline: (§1)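 Relative viability is defined as nuclei in treated wells over nuclei in vehicle wells. Duplicate plates were run and medians reported. Lung cancer cell lines in 1536-well plates were dosed by pin tool one day after seeding, with one drug or with a fixed anchor-drug dose plus five library-drug doses (not always all listed) in √10 steps, and nuclei were counted after 5 days.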

Tipifarnib + AZD7762 = compound: Cn1cncc1[C@@](N)(c1ccc(Cl)cc1)c1ccc2c(c1)c(-c1cccc(Cl)c1)cc(=O)n2C [Tipifarnib] + NC(=O)Nc1cc(-c2cccc(F)c2)sc1C(=O)N[C@H]1CCCNC1 [AZD7762] (partner 0.2 µM)
Outline: as §1

Tipifarnib + Decitabine = compound: Cn1cncc1[C@@](N)(c1ccc(Cl)cc1)c1ccc2c(c1)c(-c1cccc(Cl)c1)cc(=O)n2C [Tipifarnib] + Nc1ncn([C@H]2C[C@H](O)[C@@H](CO)O2)c(=O)n1 [Decitabine] (partner 2 µM)
Outline: as §1

Tipifarnib + Olaparib = compound: Cn1cncc1[C@@](N)(c1ccc(Cl)cc1)c1ccc2c(c1)c(-c1cccc(Cl)c1)cc(=O)n2C [Tipifarnib] + O=C(c1cc(Cc2n[nH]c(=O)c3ccccc23)ccc1F)N1CCN(C(=O)C2CC2)CC1 [Olaparib] (partner 8 µM)
Outline: as §1

| Cell Line | relative viability (Tipifarnib + Lapatinib; first compound 0.01 µM) | relative viability (Tipifarnib + Lapatinib; first compound 0.03162 µM) | relative viability (Tipifarnib + Lapatinib; first compound 0.1 µM) | relative viability (Tipifarnib + Lapatinib; first compound 0.3162 µM) | relative viability (Tipifarnib + Lapatinib; first compound 1 µM) | relative viability (Tipifarnib + AZD7762; first compound 0.01 µM) | relative viability (Tipifarnib + AZD7762; first compound 0.03162 µM) | relative viability (Tipifarnib + AZD7762; first compound 0.1 µM) | relative viability (Tipifarnib + AZD7762; first compound 0.3162 µM) | relative viability (Tipifarnib + AZD7762; first compound 1 µM) | relative viability (Tipifarnib + Decitabine; first compound 0.01 µM) | relative viability (Tipifarnib + Decitabine; first compound 0.03162 µM) | relative viability (Tipifarnib + Decitabine; first compound 0.1 µM) | relative viability (Tipifarnib + Decitabine; first compound 0.3162 µM) | relative viability (Tipifarnib + Decitabine; first compound 1 µM) | relative viability (Tipifarnib + Olaparib; first compound 0.01 µM) | relative viability (Tipifarnib + Olaparib; first compound 0.03162 µM) | relative viability (Tipifarnib + Olaparib; first compound 0.1 µM) | relative viability (Tipifarnib + Olaparib; first compound 0.3162 µM) | relative viability (Tipifarnib + Olaparib; first compound 1 µM) |
| --- | --- | --- | --- | --- | --- | --- | --- | --- | --- | --- | --- | --- | --- | --- | --- | --- | --- | --- | --- | --- |
| LC-2-ad | 0.843 | 0.592 | 0.367 | 0.436 | 0.178 | 0.813 | 0.68 | 0.561 | 0.474 | 0.359 | 0.871 | 0.913 | 0.77 | 0.802 | 0.641 | 0.69 | 0.667 | 0.666 | 0.533 | 0.515 |
| LCLC-97TM1 | 0.998 | 1.02 | 0.554 | 0.504 | 0.237 | 0.179 | 0.225 | 0.216 | 0.17 | 0.0822 | 0.242 | 0.242 | 0.308 | 0.225 | 0.205 | 0.447 | 0.245 | 0.315 | 0.229 | 0.239 |
| LK-2 | 0.824 | 0.801 | 0.8 | 0.678 | 0.629 | 0.769 | 0.357 | 0.256 | 0.17 | 0.104 | 0.375 | 0.266 | 0.276 | 0.265 | 0.139 | 0.779 | 0.651 | 0.443 | 0.329 | 0.347 |
| LOU-NH91 | 0.794 | 0.658 | 0.675 | 0.669 | 0.499 | 0.715 | 0.685 | 0.636 | 0.625 | 0.503 | 0.804 | 0.791 | 0.801 | 0.664 | 0.738 | 0.929 | 0.904 | 0.857 | 0.802 | 0.824 |
| LU99A | 0.663 | 0.583 | 0.461 | 0.448 | 0.275 | 0.277 | 0.272 | 0.255 | 0.182 | 0.224 | 0.982 | 0.6 | 0.481 | 0.456 | 0.399 | 0.293 | 0.23 | 0.226 | 0.245 | 0.202 |
| LXF-289 | 0.88 | 0.865 | 0.855 | 0.787 | 0.708 | 1.08 | 1.12 | 1.08 | 0.941 | 0.347 | 0.415 | 0.391 | 0.429 | 0.348 | 0.377 | 1.12 | 1.02 | 0.989 | 0.805 | 0.91 |
| NCI-H23 | 1.4 | 0.949 | 0.717 | 0.439 | 0.23 | 0.227 | 0.253 | 0.229 | 0.236 | 0.199 | 0.333 | 0.349 | 0.307 | 0.266 | 0.281 | 0.318 | 0.241 | 0.33 | 0.266 | 0.21 |
| NCI-H322M | 0.637 | 0.662 | 0.622 | 0.688 | 0.505 | 0.561 | 0.591 | 0.553 | 0.474 | 0.442 | 0.713 | 0.751 | 0.631 | 0.701 | 0.666 | 0.825 | 0.772 | 0.884 | 0.774 | 0.91 |
| NCI-H358 | 0.455 | 0.444 | 0.443 | 0.424 | 0.352 | 0.563 | 0.511 | 0.575 | 0.382 | 0.378 | 0.202 | 0.203 | 0.243 | 0.278 | 0.183 | 0.607 | 0.578 | 0.542 | 0.48 | 0.34 |
| NCI-H460 | 0.987 | 0.431 | 0.285 | 0.195 | 0.0315 | 0.575 | 0.618 | 0.282 | 0.237 | 0.118 | 0.479 | 0.33 | 0.283 | 0.15 | 0.0821 | 0.462 | 0.369 | 0.219 | 0.207 | 0.208 |
| NCI-H596 | 0.99 | 1.09 | 1.04 | 0.868 | 0.608 | 1.1 | 1.09 | 1.08 | 0.822 | 0.776 | 0.96 | 0.918 | 0.963 | 0.558 | 0.824 | 0.667 | 0.693 | 0.65 | 0.574 | 0.593 |
| NCI-H647 | 1.17 | 0.792 | 0.693 | 0.668 | 0.176 | 0.405 | 0.48 | 0.308 | 0.116 | 0.0944 | 0.453 | 0.305 | 0.261 | 0.185 | 0.186 | 0.566 | 0.472 | 0.39 | 0.142 | 0.142 |
| NCI-H650 | 0.719 | 0.837 | 0.599 | 0.434 | 0.345 | 1.39 | 1.17 | 0.77 | 0.667 | 0.429 | 0.352 | 0.33 | 0.341 | 0.251 | 0.305 | 0.543 | 0.394 | 0.376 | 0.334 | 0.303 |
| NCI-H727 | 1.01 | 0.843 | 0.755 | 0.578 | 0.607 | 0.613 | 0.608 | 0.519 | 0.504 | 0.571 | 0.862 | 0.811 | 0.855 | 0.765 | 0.851 | 0.702 | 0.685 | 0.866 | 0.802 | 0.901 |
| NCI-H838 | 0.965 | 0.952 | 0.644 | 0.615 | 0.393 | 1.01 | 0.965 | 0.905 | 0.836 | 0.851 | 0.466 | 0.452 | 0.46 | 0.413 | 0.38 | 0.741 | 0.675 | 0.683 | 0.626 | 0.617 |
| NCI-H1355 | 0.999 | 0.871 | 0.746 | 0.67 | 0.516 | 0.833 | 0.707 | 0.517 | 0.473 | 0.478 | 0.372 | 0.397 | 0.328 | 0.317 | 0.321 | 0.801 | 0.706 | 0.55 | 0.559 | 0.507 |
